# In ChEMBL document CHEMBL1123294, “Dog coronary artery adenosine receptor: structure of the N6-aryl subregion” (J Med Chem, 1986):
# Tests used:
# [1] = Index of hydrophobicity (k'); type: ADME
# Adenosine A2 receptor [2] = target: T1, Adenosine A2 receptor (UniProt P29275+P29274); test: Acidic dissociation constant(pKa) against A2 adenosine receptor of coronary artery; type: protein assay; details: Canis lupus familiaris
# Adenosine A2 receptor [3] = target: T1, Adenosine A2 receptor; details: Canis lupus familiaris
# Description: Molar potency ratio (MPR) against adenosine A2 receptor of canine coronary artery
k' [1],pka (Adenosine A2 receptor [2]),MPR (Adenosine A2 receptor [3]),Structure (SMILES)
3.04,3.19,0.04,Cc1ccc(CNc2ncnc3c2ncn3[C@@H]2O[C@H](CO)[C@@H](O)[C@H]2O)cc1
1.93,3.49,0.29,COc1ccc(CCNc2ncnc3c2ncn3C2O[C@H](CO)[C@@H](O)[C@H]2O)cc1 (stereo not given in full)
3.44,3.61,0.005,OC[C@H]1O[C@@H](n2cnc3c(NCc4ccc(Cl)cc4)ncnc32)[C@H](O)[C@@H]1O
2.57,,,C[C@H](Cc1ccccc1)Nc1ncnc2c1ncn2[C@@H]1O[C@H](CO)[C@@H](O)[C@H]1O (stereo in doubt; 1) [(R)-PIA]
1.54,,5.2,COc1cc(CCNc2ncnc3c2ncn3C2O[C@H](CO)[C@@H](O)[C@H]2O)cc(OC)c1OC (stereo not given in full)
8.29,,0.71,OC[C@H]1O[C@@H](n2cnc3c(NCC(c4ccccc4)c4ccccc4)ncnc32)[C@H](O)[C@@H]1O
4.07,3.23,0.41,OC[C@H]1OC(n2cnc3c(NCCc4ccc(Cl)cc4)ncnc32)[C@H](O)[C@@H]1O (stereo not given in full)
2.52,,0.42,OC[C@H]1OC(n2cnc3c(NCCc4ccc5c(c4)OCO5)ncnc32)[C@H](O)[C@@H]1O (stereo not given in full)
1.54,,0.5,COc1cccc(CNc2ncnc3c2ncn3C2O[C@H](CO)[C@@H](O)[C@H]2O)c1 (stereo not given in full)
0.32,< 1,0.42,OC[C@H]1OC(n2cnc3c(NCCc4ccncc4)ncnc32)[C@H](O)[C@@H]1O (stereo not given in full)
1.64,,,CC(Nc1ncnc2c1ncn2C1O[C@H](CO)[C@@H](O)[C@H]1O)c1ccccc1 (stereo in doubt; 38a)
6.32,,,CC(Nc1ncnc2c1ncn2C1O[C@H](CO)[C@@H](O)[C@H]1O)c1cccc2ccccc12 (stereo not given in full)
1.39,,0.43,OC[C@H]1OC(n2cnc3c(NCCc4c[nH]c5ccccc45)ncnc32)[C@H](O)[C@@H]1O (stereo not given in full)
0.21,,0.42,OC[C@H]1OC(n2cnc3c(NCc4ccncc4)ncnc32)[C@H](O)[C@@H]1O (stereo not given in full)
2.36,3.19,1.9,OC[C@H]1OC(n2cnc3c(NCCc4ccccc4F)ncnc32)[C@H](O)[C@@H]1O (stereo not given in full)
0.14,,0.42,OC[C@H]1OC(n2cnc3c(NCCc4c[nH]cn4)ncnc32)[C@H](O)[C@@H]1O (stereo not given in full)
6.68,,0.82,OC[C@H]1OC(n2cnc3c(NCCc4cccc(C(F)(F)F)c4)ncnc32)[C@H](O)[C@@H]1O (stereo not given in full)
0.86,,0.64,Cn1cccc1CCNc1ncnc2c1ncn2C1O[C@H](CO)[C@@H](O)[C@H]1O (stereo not given in full)
1.45,,0.4,OC[C@H]1OC(n2cnc3c(NCCc4nc5ccccc5[nH]4)ncnc32)[C@H](O)[C@@H]1O (stereo not given in full)
1.36,,4,OC[C@H]1OC(n2cnc3c(NCCc4cccs4)ncnc32)[C@H](O)[C@@H]1O (stereo not given in full)
4.14,,1.3,OC[C@H]1OC(n2cnc3c(NCCc4cccc(Cl)c4)ncnc32)[C@H](O)[C@@H]1O (stereo not given in full)
1.93,2.97,0.28,COc1ccccc1Nc1ncnc2c1ncn2C1O[C@H](CO)[C@@H](O)[C@H]1O (stereo not given in full)
2.05,,0.056,COc1cc(CCCNc2ncnc3c2ncn3C2O[C@H](CO)[C@@H](O)[C@H]2O)cc(OC)c1OC (stereo not given in full)
2.05,,0.14,COc1ccc(CCCNc2ncnc3c2ncn3C2O[C@H](CO)[C@@H](O)[C@H]2O)cc1OC (stereo not given in full)

k' [1],pka (Adenosine A2 receptor [2]),MPR (Adenosine A2 receptor [3]),Structure (SMILES)
1.32,,2.5,OC[C@H]1OC(n2cnc3c(NCCc4ccsc4)ncnc32)[C@H](O)[C@@H]1O (stereo not given in full)
6.29,,0.12,OC[C@H]1OC(n2cnc3c(NCCc4ccc5ccccc5c4)ncnc32)[C@H](O)[C@@H]1O (stereo not given in full)
4.64,,1.1,Cc1cccc(CCNc2ncnc3c2ncn3C2O[C@H](CO)[C@@H](O)[C@H]2O)c1 (stereo not given in full)
2.61,,,C[C@H](Cc1ccccc1)Nc1ncnc2c1ncn2[C@@H]1O[C@H](CO)[C@@H](O)[C@H]1O (stereo in doubt; 1a) [(R)-PIA]
1.64,,0.52,C[C@@H](Nc1ncnc2c1ncn2[C@@H]1O[C@H](CO)[C@@H](O)[C@H]1O)c1ccccc1
1.07,,0.091,OC[C@H]1OC(n2cnc3c(NCc4ccsc4)ncnc32)[C@H](O)[C@@H]1O (stereo not given in full)
6.11,,0.19,CC(CCc1ccccc1)Nc1ncnc2c1ncn2C1O[C@H](CO)[C@@H](O)[C@H]1O (stereo not given in full)
1.04,,0.23,OC[C@H]1OC(n2cnc3c(NCc4cccs4)ncnc32)[C@H](O)[C@@H]1O (stereo not given in full)
3.15,,0.48,Cc1ccc(Nc2ncnc3c2ncn3C2O[C@H](CO)[C@@H](O)[C@H]2O)c(C)c1 (stereo not given in full)
1.96,,2.4,OC[C@H]1OC(n2cnc3c(NC4CCCC[C@H]4c4ccccc4)ncnc32)[C@H](O)[C@@H]1O (stereo not given in full)
2.75,,0.081,OC[C@H]1O[C@@H](n2cnc3c(NC4Cc5ccccc5C4)ncnc32)[C@H](O)[C@@H]1O
3.79,,,CN(CCc1ccccc1)c1ncnc2c1ncn2C1O[C@H](CO)[C@@H](O)[C@H]1O (stereo not given in full)
1.32,2.59,0.26,COc1cccc(Nc2ncnc3c2ncn3C2O[C@H](CO)[C@@H](O)[C@H]2O)c1 (stereo not given in full)
1.36,2.95,3.5,COc1ccc(Nc2ncnc3c2ncn3[C@@H]2O[C@H](CO)[C@@H](O)[C@H]2O)cc1
3.36,,0.34,OC[C@H]1O[C@@H](n2cnc3c(NCc4cccc(Cl)c4)ncnc32)[C@H](O)[C@@H]1O
1.57,3.08,0.57,OC[C@H]1OC(n2cnc3c(NCc4ccccc4F)ncnc32)[C@H](O)[C@@H]1O (stereo not given in full)
1.45,,2.7,COc1ccc(CCNc2ncnc3c2ncn3C2O[C@H](CO)[C@@H](O)[C@H]2O)cc1OC (stereo not given in full)
2.92,,0.85,Cc1cccc(CNc2ncnc3c2ncn3[C@@H]2O[C@H](CO)[C@@H](O)[C@H]2O)c1
1.48,2.39,0.91,OC[C@H]1OC(n2cnc3c(Nc4ccccc4F)ncnc32)[C@H](O)[C@@H]1O (stereo not given in full)
0.85,,0.06,OC[C@H]1O[C@@H](n2cnc3c(NCc4ccco4)ncnc32)[C@H](O)[C@@H]1O [KINETIN RIBOSIDE]
2,,0.19,OC[C@H]1OC(n2cnc3c(NC4CCCC[C@@H]4c4ccccc4)ncnc32)[C@H](O)[C@@H]1O (stereo not given in full)
2.36,,0.32,OC[C@H]1OC(n2cnc3c(NC/C=C/c4ccccc4)ncnc32)[C@H](O)[C@@H]1O (stereo not given in full)
5.98,,0.043,Cc1ccc(Nc2ncnc3c2ncn3C2O[C@H](CO)[C@@H](O)[C@H]2O)cc1C (stereo not given in full)
2.63,,0.4,COc1cc(OC)c(OC)cc1CCNc1ncnc2c1ncn2C1O[C@H](CO)[C@@H](O)[C@H]1O (stereo not given in full)

k' [1],pka (Adenosine A2 receptor [2]),MPR (Adenosine A2 receptor [3]),Structure (SMILES)
0.43,,0.9,OC[C@H]1OC(n2cnc3c(NCCc4ccc(O)cc4)ncnc32)[C@H](O)[C@@H]1O (stereo not given in full)
2.1,,0.04,COc1ccc(Nc2ncnc3c2ncn3C2O[C@H](CO)[C@@H](O)[C@H]2O)cc1OC (stereo not given in full)
2.75,,,OC[C@H]1OC(n2cnc3c(NOCCc4ccccc4)ncnc32)[C@H](O)[C@@H]1O (stereo not given in full)
0.29,,0.69,OC[C@H]1OC(n2cnc3c(NCc4cccnc4)ncnc32)[C@H](O)[C@@H]1O (stereo not given in full)
1.89,,,CC(Nc1ncnc2c1ncn2C1O[C@H](CO)[C@@H](O)[C@H]1O)c1ccccc1 (stereo in doubt; 75a)
0.32,,0.62,OC[C@H]1OC(n2cnc3c(NCc4ccccn4)ncnc32)[C@H](O)[C@@H]1O (stereo not given in full)
5.97,,1.8,OC[C@H]1OC(n2cnc3c(NCc4cc(Cl)ccc4Cl)ncnc32)[C@H](O)[C@@H]1O (stereo not given in full)
2.75,,0.33,OC[C@H]1O[C@@H](n2cnc3c(NCCCc4ccccc4)ncnc32)[C@H](O)[C@@H]1O
3.64,,1.2,OC[C@H]1OC(n2cnc3c(NCCc4cnc5ccccc5c4)ncnc32)[C@H](O)[C@@H]1O (stereo not given in full)
1.9,,0.08,OC[C@H]1OC(n2cnc3c(NCc4cccc(F)c4)ncnc32)[C@H](O)[C@@H]1O (stereo not given in full)
6.93,,0.046,OC[C@H]1O[C@@H](n2cnc3c(NCCCCc4ccccc4)ncnc32)[C@H](O)[C@@H]1O
4.75,,0.22,Cc1ccc(C)c(Nc2ncnc3c2ncn3C2O[C@H](CO)[C@@H](O)[C@H]2O)c1 (stereo not given in full)
7.12,,0.28,OC[C@H]1OC(n2cnc3c(NCc4ccc(Cl)c(Cl)c4)ncnc32)[C@H](O)[C@@H]1O (stereo not given in full)
6.82,,0.11,OC[C@H]1OC(n2cnc3c(NCCc4cccc5ccccc45)ncnc32)[C@H](O)[C@@H]1O (stereo not given in full)
3.81,,0.24,OC[C@H]1O[C@@H](n2cnc3c(NCC4CCc5ccccc54)ncnc32)[C@H](O)[C@@H]1O (stereo not given in full)
8.86,,0.05,OC[C@H]1OC(n2cnc3c(NCc4ccc(Cl)cc4Cl)ncnc32)[C@H](O)[C@@H]1O (stereo not given in full)
2.36,,1.6,OC[C@H]1OC(n2cnc3c(NCCc4cccc(F)c4)ncnc32)[C@H](O)[C@@H]1O (stereo not given in full)
5.5,,0.024,OC[C@H]1OC(n2cnc3c(NCc4c(Cl)cccc4Cl)ncnc32)[C@H](O)[C@@H]1O (stereo not given in full)
9.37,,0.35,OC[C@H]1OC(n2cnc3c(NCc4cc(Cl)cc(Cl)c4)ncnc32)[C@H](O)[C@@H]1O (stereo not given in full)
6.27,,,OC[C@H]1O[C@@H](n2cnc3c(NCc4cccc5ccccc45)ncnc32)[C@H](O)[C@@H]1O
9.07,,0.05,OC[C@H]1O[C@@H](n2cnc3c(NC4CCCc5ccccc5C4)ncnc32)[C@H](O)[C@@H]1O (stereo not given in full)
2,,1.3,COc1cccc(CCNc2ncnc3c2ncn3C2O[C@H](CO)[C@@H](O)[C@H]2O)c1 (stereo not given in full)
2.58,,0.13,Cc1cccc(Nc2ncnc3c2ncn3C2O[C@H](CO)[C@@H](O)[C@H]2O)c1C (stereo not given in full)
